# In ChEMBL document CHEMBL3046942, “Synthesis and biological activity of new cycloalkylthiophene-Schiff bases and their Cr(III) and Zn(II) complexes” (2010):
# Activity calls are given as the source filed them. The calls are words filed in the database; no cut-off is given here.
# How the values were obtained:
# Shigella boydii [1] = assay: Antibacterial activity against Shigella boydii type 6 RSKK-96043 at 30 ug after 24 hr by agar well diffusion method; type: functional; details: type 6 RSKK-96043, 24 h, read-out: DIZ
# Listeria monocytogenes [2] = assay: Antibacterial activity against Listeria monocytogenes ATCC 19115 at 30 ug after 24 hr by agar well diffusion method; type: functional; details: ATCC 19115, 24 h, read-out: DIZ
# Staphylococcus aureus [3] = assay: Antibacterial activity against Staphylococcus aureus ATCC 25923 at 30 ug after 24 hr by agar well diffusion method; type: functional; details: ATCC 25923, 24 h, read-out: DIZ
# Proteus [4] = assay: Antibacterial activity against Proteus OX2 Wrah at 30 ug after 24 hr by agar well diffusion method; type: functional; details: read-out: DIZ
# Shigella boydii [5] = assay: Antibacterial activity against Shigella boydii type 16 at 30 ug after 24 hr by agar well diffusion method; type: functional; details: type 16, 24 h, read-out: DIZ
# Escherichia coli [6] = assay: Antibacterial activity against Escherichia coli ATCC 1280 at 30 ug after 24 hr by agar well diffusion method; type: functional; details: ATCC 1280, 24 h, read-out: DIZ
# Shigella boydii [7] = assay: Antibacterial activity against Shigella boydii type 11 at 30 ug after 24 hr by agar well diffusion method; type: functional; details: type 11, 24 h, read-out: DIZ
# Pseudomonas putida [8] = assay: Antibacterial activity against Pseudomonas putida at 30 ug after 24 hr by agar well diffusion method; type: functional; details: read-out: DIZ
# Salmonella typhimurium [9] = assay: Antibacterial activity against Salmonella enterica subsp. enterica serovar Typhi H NCTC 901.8394 at 30 ug after 24 hr by agar well diffusion method; type: functional; details: H NCTC 901.8394, 24 h, read-out: DIZ
# Listeria monocytogenes [10] = assay: Antibacterial activity against Listeria monocytogenes ATCC 19115 at 0.25 ug/ml after 24 hr by agar well diffusion method; type: functional
# Staphylococcus aureus [11] = assay: Antibacterial activity against Staphylococcus aureus ATCC 25923 at 0.25 ug/ml after 24 hr by agar well diffusion method; type: functional; details: ATCC 25923, 24 h, read-out: DIZ
# Shigella boydii [12] = assay: Antibacterial activity against Shigella boydii type 11 at 0.25 ug/ml after 24 hr by agar well diffusion method; type: functional; details: type 11, 24 h, read-out: DIZ
# Escherichia coli [13] = assay: Antibacterial activity against Escherichia coli ATCC 1280 at 0.25 ug/ml after 24 hr by agar well diffusion method; type: functional; details: ATCC 1280, 24 h, read-out: DIZ
# Proteus [14] = assay: Antibacterial activity against Proteus OX2 Wrah at 0.25 ug/ml after 24 hr by agar well diffusion method; type: functional
# Salmonella typhimurium [15] = assay: Antibacterial activity against Salmonella enterica subsp. enterica serovar Typhi H NCTC 901.8394 at 0.25 ug/ml after 24 hr by agar well diffusion method; type: functional; details: H NCTC 901.8394, 24 h, read-out: DIZ
# Candida albicans = assay: Antifungal activity against Candida albicans Y-1200-NIH at 0.25 ug/ml after 24 hr by agar well diffusion method; type: functional
# Pseudomonas putida [16] = assay: Antibacterial activity against Pseudomonas putida at 0.25 ug/ml after 24 hr by agar well diffusion method; type: functional
# Shigella boydii [17] = assay: Antibacterial activity against Shigella boydii type 16 at 0.25 ug/ml after 24 hr by agar well diffusion method; type: functional; details: type 16, 24 h, read-out: DIZ
# Shigella boydii [18] = assay: Antibacterial activity against Shigella boydii type 6 RSKK-96043 at 0.25 ug/ml after 24 hr by agar well diffusion method; type: functional; details: type 6 RSKK-96043, 24 h, read-out: DIZ
# Brucella abortus = assay: Antibacterial activity against Brucella abortus RSKK-03026 at 0.25 ug/ml after 24 hr by agar well diffusion method; type: functional
# Shigella boydii [19] = assay: Antibacterial activity against Shigella boydii type 11 at 25 ug after 24 hr by agar well diffusion method; type: functional; details: type 11, 24 h, read-out: DIZ
# Staphylococcus aureus [20] = assay: Antibacterial activity against Staphylococcus aureus ATCC 25923 at 25 ug after 24 hr by agar well diffusion method; type: functional; details: ATCC 25923, 24 h, read-out: DIZ
# Salmonella typhimurium [21] = assay: Antibacterial activity against Salmonella enterica subsp. enterica serovar Typhi H NCTC 901.8394 at 25 ug after 24 hr by agar well diffusion method; type: functional; details: H NCTC 901.8394, 24 h, read-out: DIZ
# Listeria monocytogenes [22] = assay: Antibacterial activity against Listeria monocytogenes ATCC 19115 at 25 ug after 24 hr by agar well diffusion method; type: functional; details: ATCC 19115, 24 h, read-out: DIZ
# Escherichia coli [23] = assay: microbe, parasite or virus in culture; details: ATCC 1280, 24 h, read-out: DIZ
# Pseudomonas putida [24] = assay: Antibacterial activity against Pseudomonas putida at 25 ug after 24 hr by agar well diffusion method; type: functional; details: read-out: DIZ
# Shigella boydii [25] = assay: Antibacterial activity against Shigella boydii type 16 at 25 ug after 24 hr by agar well diffusion method; type: functional; details: type 16, 24 h, read-out: DIZ
# Shigella boydii [26] = assay: Antibacterial activity against Shigella boydii type 6 RSKK-96043 at 25 ug after 24 hr by agar well diffusion method; type: functional; details: type 6 RSKK-96043, 24 h, read-out: DIZ
# Proteus [27] = assay: Antibacterial activity against Proteus OX2 Wrah at 25 ug after 24 hr by agar well diffusion method; type: functional; details: read-out: DIZ
Structure (SMILES),zone of inhibition at 30 µg/disc (Shigella boydii [1]) [mm],zone of inhibition at 30 µg/disc (Listeria monocytogenes [2]) [mm],zone of inhibition at 30 µg/disc (Staphylococcus aureus [3]) [mm],zone of inhibition at 30 µg/disc (Proteus [4]) [mm],zone of inhibition at 30 µg/disc (Shigella boydii [5]) [mm],zone of inhibition at 30 µg/disc (Escherichia coli [6]) [mm],zone of inhibition at 30 µg/disc (Shigella boydii [7]) [mm],zone of inhibition at 30 µg/disc (Pseudomonas putida [8]) [mm],zone of inhibition at 30 µg/disc (Salmonella typhimurium [9]) [mm],zone of inhibition at 0.25 µg/mL (Staphylococcus aureus [11]) [mm],zone of inhibition at 0.25 µg/mL (Shigella boydii [12]) [mm],zone of inhibition at 0.25 µg/mL (Escherichia coli [13]) [mm],diameter of the inhibition zone (DIZ) (Proteus [14]),zone of inhibition at 0.25 µg/mL (Salmonella typhimurium [15]) [mm],zone of inhibition at 0.25 µg/mL (Shigella boydii [17]) [mm],zone of inhibition at 0.25 µg/mL (Shigella boydii [18]) [mm],other results
O=C(N[C@H](CO)[C@H](O)c1ccc([N+](=O)[O-])cc1)C(Cl)Cl [CHLORAMPHENICOL],18,18,25,27,22,30,18,12,19,–,–,–,–,–,–,–,–
CC1(C)S[C@@H]2[C@H](NC(=O)[C@H](N)c3ccc(O)cc3)C(=O)N2[C@H]1C(=O)O [AMOXICILLIN],19,22,30,17,14,14,24,15,19,–,–,–,–,–,–,–,–
CCOC(=O)c1c(/N=C/c2c(O)ccc3ccccc23)sc2c1CCCC2,–,–,–,–,–,–,–,–,–,9,7,6,inactive,7,8,7,"zone of inhibition at 0.25 µg/mL (Listeria monocytogenes [10]; ATCC 19115, 24 h, read-out: DIZ): 9 mm; diameter of the inhibition zone (DIZ) (Candida albicans): inactive; zone of inhibition at 0.25 µg/mL (Pseudomonas putida [16]; read-out: DIZ): 7 mm; diameter of the inhibition zone (DIZ) (Brucella abortus): inactive"
CCOC(=O)c1c(/N=C/c2c(O)ccc3ccccc23)sc2c1CCCCC2,–,–,–,–,–,–,–,–,–,9,8,9,inactive,8,8,7,"diameter of the inhibition zone (DIZ) (Listeria monocytogenes [10]): inactive; zone of inhibition at 0.25 µg/mL (Candida albicans; read-out: DIZ): 11 mm; diameter of the inhibition zone (DIZ) (Pseudomonas putida [16]): inactive; zone of inhibition at 0.25 µg/mL (Brucella abortus; RSKK-03026, 24 h, read-out: DIZ): 5 mm"
Cc1cc(NS(=O)(=O)c2ccc(N)cc2)no1 [SULFAMETHOXAZOLE],–,–,–,–,–,–,–,–,–,–,–,–,–,–,–,–,zone of inhibition at 25 µg/disc (Shigella boydii [19]): 19 mm; zone of inhibition at 25 µg/disc (Staphylococcus aureus [20]): 24 mm; zone of inhibition at 25 µg/disc (Salmonella typhimurium [21]): 17 mm; zone of inhibition at 25 µg/disc (Listeria monocytogenes [22]): 11 mm; zone of inhibition at 25 µg/disc (Escherichia coli [23]): 18 mm; zone of inhibition at 25 µg/disc (Pseudomonas putida [24]): 18 mm; zone of inhibition at 25 µg/disc (Shigella boydii [25]): 20 mm; zone of inhibition at 25 µg/disc (Shigella boydii [26]): 20 mm; zone of inhibition at 25 µg/disc (Proteus [27]): 20 mm
